Results on one molecule are retold here after US20100144749A1, “TREATMENT OF CANCERS WITH ACQUIRED RESISTANCE TO KIT INHIBITORS” (priority 2005, published 2010).

Holding throughout (type): cell-based, murine
Assay [1] concerns Ba/F3 cells expressing human c-KIT with exon 11 deletion of residues 557-558. The experiment in a line: Cell proliferation assay (CellTiter-Glo), Ba/F3 c-KIT exon 11 deletion mutant. The conditions noted are these: BaF3; Ba/F3, c-KIT exon 11 del 557-558; 72 h; dose range 0.6 to 10,000 nM; mean of at least three experiments; read-out: IC50 of cell proliferation inhibition, Exon 11 (WT). How it is done: (§1) All mutations were confirmed by DNA sequencing.
(§2) Selective pressure was applied to the transfected cells by removing IL-3 from the culture medium. After IL-independent populations, further selective pressure was applied by also growing the cells in the presence of 1 mg/mL G418. […] The stable pools were further characterized by sequencing genomic DNA to confirm the presence of the transfected c-KIT cDNA.
(§3) This assay utilizes cellular ATP as a marker for cell proliferation/viability. […] Plates were then incubated in a 5% CO2 incubator at 37° C. for 3 days. After 72 h, 100 microliters of lysis/luciferase reagent (CellTiter-Glo, Promega G7573) was added to each well. The cells were then incubated on a shaker for 5 minutes at room temperature, and luminescence was measured on a Victor 5 (Perkin Elmer) spectrophotometer. Growth inhibition was measured by comparing luminescence signal from treated vs. untreated cells in assay plates, and the IC50 analysis of cell proliferation inhibition by compounds was analyzed using Analyze 5 in-house software. […] The IC50 values are mean values calculated from at least three experiments.

In assay [2] the test system is Ba/F3 cells expressing c-KIT Exon 11/Y823D Gleevec-resistant double mutant. The assay can be described thus: Cell proliferation assay (CellTiter-Glo), Ba/F3 c-KIT exon 11/Y823D. The conditions noted are these: Mus musculus, BaF3, 72 h, dose range 0.6 to 10,000 nM, mean of at least three experiments, read-out: IC50 of cell proliferation inhibition, Exon 11/Gleevec-resistant Double Mutant Y823D. How it is done: as §1, §2, §3
A general note: ATP-based viability assays read luminescence as a measure of living cells.

Assay [3] has as its system Ba/F3 cells expressing c-KIT Exon 11/N822K Gleevec-resistant double mutant. The assay can be described thus: Cell proliferation assay (CellTiter-Glo), Ba/F3 c-KIT exon 11/N822K. The conditions noted are these: Mus musculus, BaF3, 72 h, dose range 0.6 to 10,000 nM, mean of at least three experiments, read-out: IC50 of cell proliferation inhibition, Exon 11/Gleevec-resistant Double Mutant N822K. As for the experimental part:
as §1, §2, §3

The test system of assay [4] is Ba/F3 cells expressing c-KIT Exon 11/D816G Gleevec-resistant double mutant. The experiment in a line: Cell proliferation assay (CellTiter-Glo), Ba/F3 c-KIT exon 11/D816G. The conditions noted are these: Mus musculus, BaF3, 72 h, dose range 0.6 to 10,000 nM, mean of at least three experiments, read-out: IC50 of cell proliferation inhibition, Exon 11/Gleevec-resistant Double Mutant D816G. How it is done:
as §1, §2, §3

Assay [5] relates to c-KIT-expressing Ba/F3 cell lines, Gleevec-resistant double mutants versus Exon 11 mutant. The experiment in a line: Potency shift caused by c-KIT resistance mutations (summary of Table 2). The conditions noted are these: double mutants relative to Exon 11 mutant, from Table 2. As for the experimental part:
as §1, §2, §3

Assay [6] deals with Ba/F3 cells expressing c-KIT Exon 11/V654A Gleevec-resistant double mutant. The assay can be described thus: Cell proliferation assay (CellTiter-Glo), Ba/F3 c-KIT exon 11/V654A. The settings on record: Mus musculus, BaF3, 72 h, dose range 0.6 to 10,000 nM, mean of at least three experiments, read-out: IC50 of cell proliferation inhibition, Exon 11/Gleevec-resistant Double Mutant V654A. As for the experimental part: as §1, §2, §3

In the case of `CNC(=O)c1cc(Oc2ccc(NC(=O)Nc3ccc(Cl)c(C(F)(F)F)c3)cc2)ccn1` [BAY 43-9006, N-[4-chloro-3-(trifluoromethyl)phenyl]-N′-{4-[2-carbamoyl-1-oxo-(4-pyridyloxy)]phenyl} urea], the IC50 in assay [1] is 0.003 µM; in assay [2], 0.036 µM; in assay [3], 0.017 µM; in assay [4], 0.008 µM; in assay [6] it was 0.046 µM. Also, the “decrease of drug potency caused by c-KIT resistance mutations” value in assay [5] is on record as “no more than 15 fold”.
